Data as given in PubChem BioAssay (NCI).
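Test compounds were applied to cells in 96-well plates for 48 hours at 5 doses. TGI: total growth inhibition.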

Legend:
Test in all cases: inhibition of tumour cell growth, NCI panel, 48 h
OVCAR-4 ovarian = test system: OVCAR-4 ovarian
SN12C renal = test system: SN12C renal
OVCAR-5 ovarian = test system: OVCAR-5 ovarian
HL-60(TB) leukemia = test system: HL-60(TB) leukemia
SW-620 colon = test system: SW-620 colon
MDA-MB-231 breast = test system: MDA-MB-231 breast
UACC-62 melanoma = test system: UACC-62 melanoma
SK-OV-3 ovarian = test system: SK-OV-3 ovarian
786-0 renal = test system: 786-0 renal
NCI-H23 lung = test system: NCI-H23 lung
COLO 205 colon = test system: COLO 205 colon
HOP-92 NSCLC = test system: HOP-92 NSCLC
NCI-H522 lung = test system: NCI-H522 lung
U251 CNS = test system: U251 CNS
RXF 393 renal = test system: RXF 393 renal
MOLT-4 leukemia = test system: MOLT-4 leukemia
OVCAR-8 ovarian = test system: OVCAR-8 ovarian
HCT-15 colon = test system: HCT-15 colon
T-47D breast = test system: T-47D breast
LOX IMVI melanoma = test system: LOX IMVI melanoma
PC-3 prostate = test system: PC-3 prostate
M14 melanoma = test system: M14 melanoma
SK-MEL-28 melanoma = test system: SK-MEL-28 melanoma
HOP-62 NSCLC = test system: HOP-62 NSCLC
SF-268 CNS = test system: SF-268 CNS
A498 renal = test system: A498 renal
A549 NSCLC = test system: A549 NSCLC
NCI/ADR-RES ovarian = test system: NCI/ADR-RES ovarian
EKVX NSCLC = test system: EKVX NSCLC
TK-10 renal = test system: TK-10 renal
MDA-N = test system: MDA-N
SR leukemia = test system: SR leukemia
SF-295 CNS = test system: SF-295 CNS
SK-MEL-2 melanoma = test system: SK-MEL-2 melanoma
ACHN renal = test system: ACHN renal
CCRF-CEM leukemia = test system: CCRF-CEM leukemia
NCI-H226 lung = test system: NCI-H226 lung
K-562 leukemia = test system: K-562 leukemia
CAKI-1 renal = test system: CAKI-1 renal
UO-31 renal = test system: UO-31 renal
KM12 colon = test system: KM12 colon
HT29 colon = test system: HT29 colon
OVCAR-3 ovarian = test system: OVCAR-3 ovarian
HS 578T breast = test system: HS 578T breast
MALME-3M melanoma = test system: MALME-3M melanoma
BT-549 breast = test system: BT-549 breast
SNB-75 CNS = test system: SNB-75 CNS
MCF7 breast = test system: MCF7 breast
RPMI-8226 leukemia = test system: RPMI-8226 leukemia
IGROV1 ovarian = test system: IGROV1 ovarian
DU-145 prostate = test system: DU-145 prostate
SK-MEL-5 melanoma = test system: SK-MEL-5 melanoma
HCT-116 colon = test system: HCT-116 colon
SNB-19 CNS = test system: SNB-19 CNS
NCI-H460 lung = test system: NCI-H460 lung
SF-539 CNS = test system: SF-539 CNS
MDA-MB-435 = test system: MDA-MB-435

Measured: TGI

OCCCNCc1ccncc1
> 100 µM: all assays above
